Reference: patent US20230234936A1, “COMPOUND FOR TARGETING AND DEGRADING PROTEIN, AND PREPARATION METHOD THEREFOR AND USE THEREOF” (SHANGHAI LEADINGTAC PHARMACEUTICAL CO., LTD., priority 2020, published 2023)
pIC50: −log10 of the molar value.

How the values were obtained:
[1] = target: T1, IRAK4 kinase (Homo sapiens, UniProt Q9NWZ3); experiment: IRAK4 kinase activity test (KinEASE-STK S1 HTRF kit); assay type: biochemical; conditions: 2.5 nM kinase, 1 μM biotinylated polypeptide substrate, 7 μM ATP, 37° C. 120 min
T1 sequence (Q9NWZ3 1-460): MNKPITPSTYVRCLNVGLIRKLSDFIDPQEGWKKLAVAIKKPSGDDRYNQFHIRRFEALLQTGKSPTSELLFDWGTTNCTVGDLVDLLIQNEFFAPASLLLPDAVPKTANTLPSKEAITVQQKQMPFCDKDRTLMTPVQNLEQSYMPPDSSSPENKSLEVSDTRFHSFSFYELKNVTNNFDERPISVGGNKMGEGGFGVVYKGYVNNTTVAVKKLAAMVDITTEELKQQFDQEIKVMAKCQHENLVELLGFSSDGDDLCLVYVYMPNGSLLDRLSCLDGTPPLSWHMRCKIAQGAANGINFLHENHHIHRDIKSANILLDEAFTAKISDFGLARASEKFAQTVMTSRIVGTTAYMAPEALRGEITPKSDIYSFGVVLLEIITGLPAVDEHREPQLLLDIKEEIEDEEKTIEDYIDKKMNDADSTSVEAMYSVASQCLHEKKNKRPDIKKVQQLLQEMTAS
Method in brief: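 Compound in DMSO, serially diluted to 10000–0.038 nM final, incubated with 2.5 nM kinase, 1 μM biotinylated peptide substrate and 7 μM ATP at 37° C for 120 min. Eu-anti-phospho-Ser/Thr antibody plus streptavidin-XL665 stopped the reaction (1 h RT). HTRF 665/620 nm ratio gave % inhibition versus control; IC50 from nonlinear log-concentration fit.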

[2] = test system: Interleukin-6 (IL-6) in LPS-induced human PBMC; experiment: Cytokine secretion of LPS-induced human PBMC, IL-6 AlphaLISA detection; assay type: cell-based; conditions: inhibition of IL-6, compound 1 hour or 20 hours, then LPS 100 ng/mL 5 hours
Procedure: Frozen human PBMC (Milestone, PB010C) was resuspended to RPMI 1640 medium (Gibco, A1049101) after resuscitation, supplemented with 10% fetal bovine serum (Gibco, 10099141), 100 U/mL penicillin and 100 μg/mL streptomycin (Gibco, 15140122). On the same day, 150 μL of PBMC was spread in each well of a 96-well transparent cell plate (Labserv, 310109008), so that the cell density was 2×10^5 cells/well. Then 50 μL diluted compound solution was added to the corresponding cell-covered wells to make the final concentration of the compound in the range of 0.026-10000 nM. The final concentration of DMSO was 0.25%. After the drug-treated cell plate was cultured at 37° C. for 1 hour or 20 hours in a 5% CO2 incubator, 10 μL LPS (0111:B4) (Sigma, L4391) was added with a final concentration of 100 ng/mL. The cell plate was again placed in a 5% CO2 incubator at 37° C. for 5 hours, centrifuged at 2000 rpm for 10 minutes, and 100 μL cell supernatant was taken from each well and transferred to a new 96-well transparent cell plate for cytokine concentration test, which was frozen at −80° C. to be tested.
The concentration of IL-6 in the supernatant of LPS-induced human PBMC cells was determined using interleukin-6 (IL-6) AlphaLISA detection kit (PerkinElmer, AL223 C).
According to the product instructions, IL-6 standard solutions with different concentrations were prepared in the concentration range of […]. 2 μL of IL-6 standard solution at various concentrations and the cell supernatant sample to be tested were taken, respectively added to white 384 well plates (PerkinElmer, 6007299), then a mixed solution of 8 μL of 5× anti-IL-6 receptor beads (final concentration: 10 μg/mL) and biotin-labeled anti-IL-6 antibody (final concentration 1 nM) was added to each well, and incubated at 23° C. for 60 minutes. Finally, 10 μL of 2× streptavidin-labeled donor beads (final concentration: 40 μg/mL) were added to each well and incubated at 23° C. for 30 minutes in the absent of light. After the incubation, the AlphaLISA signal value was determined in the AlphaScreen standard setting mode on the microplate reader EnVision(PerkinElmer, 2105). The standard curve was drawn by the AlphaLISA signal value of each concentration IL-6 standard solution, and then based on the corresponding concentration on the standard curve for the AlphaLISA signal value of the sample to be tested, the IL-6 concentration of each cell lysis supernatant was determined. Compared with the IL-6 concentration of the control group, the inhibition rate of the compound at each concentration was calculated, and then IC50 value of the compound was calculated by fitting the nonlinear curve with the logarithmic concentration-inhibition rate by GraphPad Prism 7.

[3] = target: T2, IRAK4 protein in THP-1 cells (Homo sapiens, UniProt Q9NWZ3); experiment: Degradation of IRAK4 in THP-1 cells (Western blot); assay type: cell-based; conditions: 24 hours, compound 1-3000 nM
T2 construct: endogenous in cells; host or cells: THP-1
T2 sequence (Q9NWZ3 1-460): T1 sequence (Q9NWZ3 1-460)
Method in brief: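 THP-1 cells (5×10^5/well) treated 24 h with compound at 1–3000 nM final. IRAK4 in lysates quantified by Western blot, normalized to internal reference and compared with control to give degradation rate; DC50 and Dmax from nonlinear fit of log concentration.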

CN(CCC1CCN(C(=O)c2ccc(Cl)c(N3CCC(=O)NC3=O)c2)CC1)C[C@H]1CC[C@H](n2cc3cc(NC(=O)c4cccc(C(F)(F)F)n4)c(C(C)(C)O)cc3n2)CC1 [Example 55, N-(2-((1r,4r)-4-(((2-(1-(4-chloro-3-(2,4-dioxotetrahydro-pyrimidin-1 (2H)-yl)benzoyl)piperidin-4-yl)ethyl) (methyl)amino)methyl)cyclohexyl)-6-(2-hydroxyprop-2-yl)-2H-indazol-5-yl)-6-(trifluoro-methyl) pyridinecarbox-amide]
pIC50 [1]: 7.97 | pIC50 [2]: 9.10 | DC50 [3]: 2.7 nM | Dmax [3]: 98.1%

COc1cc2nn([C@H]3CC[C@H](CCN4CCC5(CC4)CCN(C(=O)c4ccc(Cl)c(N6CCC(=O)NC6=O)c4)CC5)CC3)cc2cc1NC(=O)c1cccc(C(F)(F)F)n1 [Example 54, N-(2-((1r,4r)-4-(2-(9-(4-chloro-3-(2,4-dioxo-tetrahydropyrim-idin-1 (2H)-yl)benzoyl)-3,9-diazaspiro[5.5]undec-3-yl)ethyl)cyclohexyl)-6-methoxy-2H-inda-zol-5-yl)-6-(tri-fluoromethyl) pyridinecarbox-amide]
pIC50 [1]: 8.12 | pIC50 [2]: 8.59 | DC50 [3]: 1.4 nM | Dmax [3]: 98.9%

COc1cc2nn(C3CCN(CC4CCC5(CC4)CCN(C(=O)c4ccc(Cl)c(N6CCC(=O)NC6=O)c4)CC5)CC3)cc2cc1NC(=O)c1cccc(C(F)(F)F)n1 [Example 32]
pIC50 [1]: 7.55 | pIC50 [2]: 8.01 | DC50 [3]: 5.1 nM | Dmax [3]: 96.9%

COc1cc2nn([C@H]3CC[C@H](CN(C)CCC4CCN(C(=O)c5ccc(Cl)c(N6CCC(=O)NC6=O)c5)CC4)CC3)cc2cc1NC(=O)c1cccc(C(F)(F)F)n1 [Example 49, N-(2-((1r,4r)-4-(((2-(1-(4-chloro-3-(2,4-dioxotetrahydro-pyrimidin-1 (2H)-yl)benzoyl)piperidin-4-yl)ethyl) (methyl)amino)methyl)cyclohexyl)-6-methoxy-2H-inda-zol-5-yl)-6-(tri-fluoromethyl) pyridinecarbox-amide]
pIC50 [1]: 8.47 | pIC50 [2]: 8.43 | DC50 [3]: 1.8 nM | Dmax [3]: 99.2%

COc1cc2nn([C@H]3CC[C@H](CN(C)C4CCC5(CC4)CCN(C(=O)c4ccc(Cl)c(N6CCC(=O)NC6=O)c4)CC5)CC3)cc2cc1NC(=O)c1cccc(C(F)(F)F)n1 [Example 53, N-(2-((1r,4r)-4-(((3-(4-chloo-3-(2,4-dioxotetrahydro-pyrimidin-1 (2H)-yl)benzoyl)-3-azaspiro [5.5]undec-9-yl) (methyl)amino)methyl)cyclohexyl)-6-methoxy-2H-inda-zol-5-yl)-6-(triflu-oromethyl) pyridinecarbox-amide]
pIC50 [1]: 8.20 | pIC50 [2]: 8.55 | DC50 [3]: 5.9 nM | Dmax [3]: 96.3%

CC(C)(O)c1cc2nn(C3CCN(CC4CCC5(CC4)CCN(C(=O)c4ccc(F)c(C6CCC(=O)NC6=O)c4)CC5)CC3)cc2cc1NC(=O)c1cccc(C(F)(F)F)n1 (stereo not drawn) [Example 41, N-(2-(1-((3-(3-(2,6-dioxopiperidin-3-yl)-4-fluoro-benzoyl)-3-azaspiro [5.5]undec-9-yl)methyl)piperidin-4-yl)-6-(2-hydroxyprop-2-yl)-2H-inda-zol-5-yl)-6-(triflu-oromethyl) pyridinecarbox-amide]
pIC50 [1]: 7.55 | pIC50 [2]: 8.29 | DC50 [3]: 2.9 nM | Dmax [3]: 97.7%

CC(C)(O)c1cc2nn(C3CCN(CCC4CCC5(CC4)CCN(C(=O)c4ccc(Cl)c(N6CCC(=O)NC6=O)c4)CC5)CC3)cc2cc1NC(=O)c1cccc(C(F)(F)F)n1 [Example 28, N-(2-(1-(2-(3-(4-chloro-3-(2,4-dioxotetrahydro-pyrimidin-1 (2H)-yl)benzoyl)-3-azaspiro [5.5]undec-9-yl)ethyl)piperidin-4-yl)-6-(2-hydroxyprop-2-yl)-2H-indazol-5-yl)-6-(trifluoro-methyl) pyridinecarbox-amide]
pIC50 [1]: 7.79 | pIC50 [2]: 8.33 | DC50 [3]: 0.8 nM | Dmax [3]: 99.4%

COc1cc2nn(C3CCN(CCN4CCC5(CC4)CCN(C(=O)c4ccc(OC)c(N6CCC(=O)NC6=O)c4)CC5)CC3)cc2cc1NC(=O)c1cccc(C(F)(F)F)n1 [Example 1, N-(2-(1-(2-(9-(3-(2,4-dioxotetrahydropyrimidin-1 (2H)-yl)-4-methoxybenzoyl)-3,9-diazaspiro[5.5]undec-3-yl)ethyl)piperidin-4-yl)-6-methoxy-2H-indazol-5-yl)-6-(trifluoromethyl)-2-pyridinecarboxamide]
pIC50 [1]: 8.60 | pIC50 [2]: 8.31 | DC50 [3]: 3 nM | Dmax [3]: 94.6%

COc1cc2nn([C@H]3CC[C@H](N(C)C4CCC5(CC4)CCN(C(=O)c4ccc(Cl)c(N6CCC(=O)NC6=O)c4)CC5)CC3)cc2cc1NC(=O)c1cccc(C(F)(F)F)n1 [Example 56]
pIC50 [1]: 8.44 | pIC50 [2]: 8.49 | DC50 [3]: 3 nM | Dmax [3]: 97%
